Assays:
[1] = xn = mol fraction of the nth substance listed; conditions: 298.15 K, 101 kPa, Liquid, Vibrating tube method
[2] = excess molar enthalpy (molar enthalpy of mixing); xn = mol fraction of the nth substance listed; conditions: 298.15 K, 101 kPa, Liquid, Calvet calorimetry

CCCOC=O [propyl methanoate] + ClCCCCCl
Conditions	excess molar enthalpy [kcal/mol]	mass density [kg/m3]
[1], x1 = 0.0699	–	1119.28
[1], x1 = 0.1344	–	1105.73
[1], x1 = 0.2012	–	1091.45
[1], x1 = 0.3873	–	1050.4
[1], x1 = 0.4476	–	1036.71
[1], x1 = 0.5676	–	1008.76
[1], x1 = 0.6231	–	995.55
[1], x1 = 0.6814	–	981.44
[1], x1 = 0.7384	–	967.39
[1], x1 = 0.7933	–	953.67
[1], x1 = 0.8452	–	940.47
[1], x1 = 0.8982	–	926.78
[1], x1 = 0.9521	–	912.65
[1], x1 = 1	–	899.81
[2], x1 = 0.0692	0.00932	–
[2], x1 = 0.1586	0.0155	–
[2], x1 = 0.2416	0.0191	–
[2], x1 = 0.3365	0.0184	–
[2], x1 = 0.4234	0.0148	–
[2], x1 = 0.5005	0.01	–
[2], x1 = 0.5667	0.00406	–
[2], x1 = 0.6288	-0.00382	–
[2], x1 = 0.6884	-0.00837	–
[2], x1 = 0.7528	-0.00908	–
[2], x1 = 0.817	-0.00908	–
[2], x1 = 0.8815	-0.00669	–
[2], x1 = 0.9414	-0.00311	–

CCCOC(=O)CC [propyl propanoate] + ClCCCl
Conditions	excess molar enthalpy [kcal/mol]	mass density [kg/m3]
[1], x1 = 0.0347	–	1224.28
[1], x1 = 0.0727	–	1201.87
[1], x1 = 0.1118	–	1180.16
[1], x1 = 0.1538	–	1158.1
[1], x1 = 0.1965	–	1136.61
[1], x1 = 0.2437	–	1114.31
[1], x1 = 0.2932	–	1092.38
[1], x1 = 0.3455	–	1070.49
[1], x1 = 0.3994	–	1049.24
[1], x1 = 0.4599	–	1026.87
[1], x1 = 0.5188	–	1006.4
[1], x1 = 0.5854	–	984.69
[1], x1 = 0.6557	–	963.29
[1], x1 = 0.7316	–	941.63
[1], x1 = 0.8153	–	919.43
[1], x1 = 0.8998	–	898.5
[1], x1 = 1	–	875.61
[2], x1 = 0.0428	-0.0129	–
[2], x1 = 0.1001	-0.0299	–
[2], x1 = 0.1671	-0.0526	–
[2], x1 = 0.2376	-0.0758	–
[2], x1 = 0.3085	-0.0975	–
[2], x1 = 0.3736	-0.115	–
[2], x1 = 0.4312	-0.125	–
[2], x1 = 0.4782	-0.132	–
[2], x1 = 0.5177	-0.133	–
[2], x1 = 0.5861	-0.128	–
[2], x1 = 0.671	-0.117	–
[2], x1 = 0.7874	-0.0853	–
[2], x1 = 0.9084	-0.0437	–

ClCCCCl [1,3-dichloropropane] + CCCOC(=O)CC
Conditions	excess molar enthalpy [kcal/mol]	mass density [kg/m3]
[1], x2 = 0.0456	–	1160.2
[1], x2 = 0.09	–	1142.38
[1], x2 = 0.1357	–	1124.66
[1], x2 = 0.1827	–	1107.03
[1], x2 = 0.2323	–	1089.1
[1], x2 = 0.2857	–	1070.52
[1], x2 = 0.3377	–	1053.06
[1], x2 = 0.3926	–	1035.32
[1], x2 = 0.5112	–	999.15
[1], x2 = 0.5749	–	980.88
[1], x2 = 0.6382	–	963.43
[1], x2 = 0.7097	–	944.54
[1], x2 = 0.7804	–	926.67
[1], x2 = 0.8459	–	910.76
[1], x2 = 0.9232	–	892.71
[2], x2 = 0.0469	-0.00932	–
[2], x2 = 0.1103	-0.0208	–
[2], x2 = 0.1814	-0.0361	–
[2], x2 = 0.2562	-0.0545	–
[2], x2 = 0.3312	-0.0691	–
[2], x2 = 0.4023	-0.0803	–
[2], x2 = 0.4661	-0.0882	–
[2], x2 = 0.528	-0.0927	–
[2], x2 = 0.6046	-0.0894	–
[2], x2 = 0.706	-0.0793	–
[2], x2 = 0.816	-0.0576	–
[2], x2 = 0.9152	-0.0318	–

CCCOC(=O)CCC [propyl butanoate] + ClCCCCl
Conditions	excess molar enthalpy [kcal/mol]	mass density [kg/m3]
[1], x1 = 0.0366	–	1161.49
[1], x1 = 0.0766	–	1143.1
[1], x1 = 0.1186	–	1124.61
[1], x1 = 0.1603	–	1107.03
[1], x1 = 0.2067	–	1088.41
[1], x1 = 0.2552	–	1069.83
[1], x1 = 0.3066	–	1051.21
[1], x1 = 0.3595	–	1032.94
[1], x1 = 0.4152	–	1014.72
[1], x1 = 0.5357	–	978.32
[1], x1 = 0.5999	–	960.48
[1], x1 = 0.6691	–	942.33
[1], x1 = 0.7439	–	923.8
[1], x1 = 0.8228	–	905.44
[1], x1 = 0.9064	–	887.12
[1], x1 = 1	–	867.9
[2], x1 = 0.0386	-0.00478	–
[2], x1 = 0.0938	-0.0127	–
[2], x1 = 0.159	-0.0229	–
[2], x1 = 0.2273	-0.0375	–
[2], x1 = 0.2973	-0.0507	–
[2], x1 = 0.3649	-0.0626	–
[2], x1 = 0.4253	-0.0712	–
[2], x1 = 0.5121	-0.081	–
[2], x1 = 0.5732	-0.0798	–
[2], x1 = 0.6582	-0.0753	–
[2], x1 = 0.748	-0.0652	–
[2], x1 = 0.8421	-0.0464	–
[2], x1 = 0.9299	-0.0234	–

CCCOC(=O)CCC [propyl butanoate] + ClCCCCCl
Conditions	excess molar enthalpy [kcal/mol]	mass density [kg/m3]
[1], x1 = 0.1349	–	1087.88
[1], x1 = 0.1841	–	1072.12
[1], x1 = 0.233	–	1056.97
[1], x1 = 0.2856	–	1041.17
[1], x1 = 0.3405	–	1025.23
[1], x1 = 0.3956	–	1009.76
[1], x1 = 0.5129	–	978.41
[1], x1 = 0.6385	–	947.12
[1], x1 = 0.7731	–	915.88
[1], x1 = 0.8454	–	900
[1], x1 = 0.918	–	884.64
[1], x1 = 1	–	867.9
[2], x1 = 0.0503	-0.00454	–
[2], x1 = 0.1217	-0.0117	–
[2], x1 = 0.2009	-0.0203	–
[2], x1 = 0.2826	-0.0306	–
[2], x1 = 0.3602	-0.0416	–
[2], x1 = 0.4315	-0.0516	–
[2], x1 = 0.5579	-0.0629	–
[2], x1 = 0.6248	-0.0612	–
[2], x1 = 0.699	-0.0559	–
[2], x1 = 0.7829	-0.0457	–
[2], x1 = 0.8689	-0.0301	–
[2], x1 = 0.9389	-0.0158	–

Source: the NIST ThermoML archive (doi:10.1016/j.jct.2008.10.007)
